Source: patent publication US5595998A, “Pyrazoloquinolines” (priority 1994, dated 1997)

Test system: ras p21 protein
Assay: Ras p21 Nucleotide Exchange Assay (inhibition of ^3H-GDP binding to p21 ras)
Format: biochemical
Details: 50 μM
Description: Ras p21 Nucleotide Exchange Assay
The conditions for assay of nucleotide exchange inhibitors was adapted from Hall, A. and A. J. Self. 1986 J. Biol. Chem. 261: 10963-10965, which is hereby incorporated by reference.
0.5 μM ras p21 protein was incubated in 50 μls exhange buffer (50 mM Tris-HCl pH 7.5, 5 mM MgCl2, 50 mM NaCl and […]) on ice. Compounds dissolved in dimethyl sulfoxide (DMSO) were added to the desired concentration such that the final concentration of DMSO in the reaction mixture was 2% by weight. The reaction was incubated for 5 minutes on ice and then ^3 H-GDP (final concentration was 0.25 μM) was added.
Biological data are given throughout the specification in one of two forms: either as per cent inhibitions, or as the concentration at which the test compound causes 50% inhibition (IC50) of the binding of ^3 H-GDP to the p21 ras protein.
When the above assay was run at one concentration of the test compound, then the data was given as per cent inhibition at a particular concentration. […] When the assay was run at a series of concentrations, then the data were given as IC50 's.

For COc1ccc2nc3nn([C@@H]4O[C@H](COC(=O)c5ccccc5)[C@@H](OC(=O)c5ccccc5)[C@@H]4OCc4ccccc4)c(C)c3c(Cl)c2c1, the “ras p21 Assay (per cent inhibition)” value was 32%.

Same assay, conditions: 100 μM

Point of comparison: COc1ccc2nc3c(c(C)nn3[C@@H]3O[C@H](COC(=O)c4ccccc4)[C@@H](OC(=O)c4ccccc4)[C@H]3OC(=O)c3ccccc3)c(NCCN3CCOCC3)c2c1, “inhibition in the ras p21 assay” value 86%. Against it:
- COc1ccc2nc3c(c(C)nn3[C@@H]3O[C@H](COC(=O)c4ccccc4)[C@H]4OC(C)(C)O[C@H]43)c(OCCN(C)C)c2c1 — lower, 59%
- COc1ccc2nc3c(c(C)nn3[C@@H]3O[C@H](COC(=O)c4ccccc4)[C@@H](OC(=O)c4ccccc4)[C@H]3OC(=O)c3ccccc3)c(OCCN(C)C)c2c1 — lower, 12%

Same assay, conditions: read-out: IC50 in the ras p21 assay

Point of comparison: COc1ccc2nc3c(c(C)nn3[C@@H]3O[C@H](C(O)CC(=O)c4ccccc4)[C@H]4OC(=S)O[C@H]43)c(Cl)c2c1 (stereo partly shown) [Compound U], IC50 1.5 µM. Against it:
- COc1ccc2nc3c(cc2c1)c(C)nn3[C@@H]1O[C@H](COC(=O)c2ccccc2)[C@@H](O)[C@H]1O — 33-fold higher, 50 µM
- Cc1nn([C@@H]2O[C@H](COC(=O)c3ccccc3)[C@@H](OC(=O)c3ccccc3)[C@H]2OC(=O)c2ccccc2)c2nc3ccc(O)cc3c(Cl)c12 — 6.7-fold higher, 10 µM

Same assay, conditions: table 1; at (100), unit not given

Point of comparison: COc1ccc2nc3nn([C@@H]4O[C@H](COC(=O)c5ccccc5)[C@@H](OC(C)=O)[C@H]4OC(C)=O)c(C)c3c(Cl)c2c1 [Cl O(CO)Ph OCOCH3 OCOCH3], “Ras p21 Assay (per cent inhibition)” value 20%. Against it:
- COc1ccc2nc3nn([C@@H]4O[C@H](COC(=O)c5ccccc5)[C@H]5OC(=S)O[C@H]54)c(C)c3c(Cl)c2c1 [Cl O(CO)Ph OC(S)O] — higher, 86%
- COc1ccc2nc3nn([C@@H]4O[C@H](COC(=O)c5ccccc5)[C@@H](O)[C@H]4O)c(C)c3c(Cl)c2c1 [Cl O(CO)Ph OH OH] — higher, 49%
- COc1ccc2nc3nn([C@@H]4O[C@H](CO)[C@@H](O)[C@H]4O)c(C)c3c(Cl)c2c1 [Cl OH OH OH] — lower, 0%
- COc1ccc2nc3nn([C@@H]4O[C@H](CO)[C@@H](O)[C@H]4O)c(C)c3c(O)c2c1 [OH OH OH OH] — higher, 49%

Same assay, conditions: table 1; concentration causing 50% inhibition of ^3H-GDP binding; read-out: Ras p21 Assay (IC50)

Point of comparison: COc1ccc2nc3nn([C@@H]4O[C@H](COC(=O)c5ccccc5)[C@@H](OC(=O)c5ccccc5)[C@H]4OC(=O)c4ccccc4)c(C)c3c(O)c2c1 [OH O(CO)Ph O(CO)Ph O(CO)Ph], IC50 10 µM. Against it:
- COc1ccc2nc3nn([C@@H]4O[C@H](COC(=O)c5ccccc5)[C@@H](OC(=O)c5ccccc5)[C@H]4OC(=O)c4ccccc4)c(C)c3c(Cl)c2c1 [Cl O(CO)Ph O(CO)Ph O(CO)Ph] — the same, 10 µM
- COc1ccc2nc3nn([C@@H]4O[C@H](COC(=O)c5ccccc5)[C@@H](OC(=O)c5ccccc5)[C@H]4OC(=O)c4ccccc4)c(C)c3cc2c1 [H O(CO)Ph O(CO)Ph O(CO)Ph] — within 1.5-fold, 8 µM

Same assay, conditions: table 2; 50 μM

Point of comparison: COc1ccc2nc3c(c(C)nn3[C@@H]3O[C@H](CN)[C@H]4OC(C)(C)O[C@H]43)c(Cl)c2c1 [NH2 OC(CH3)2 O], “ras p21 Assay (per cent inhibition)” value 38%. Against it:
- COc1ccc2nc3c(c(C)nn3[C@@H]3O[C@H](COC(=O)CC(C)C)[C@@H](OC(=O)CC(C)C)[C@H]3OC(=O)CC(C)C)c(Cl)c2c1 — lower, 33%
- COc1ccc2nc3c(c(C)nn3[C@@H]3O[C@H](COC(=O)c4ccoc4)[C@@H](OC(=O)c4ccoc4)[C@H]3OC(=O)c3ccoc3)c(Cl)c2c1 [O(CO)-3-Fu O(CO)-3-Fu O(CO)-3-Fu] — higher, 49%
- COc1ccc2nc3c(c(C)nn3[C@@H]3O[C@H](CNC(=O)c4ccccc4)[C@H]4OC(C)(C)O[C@H]43)c(Cl)c2c1 [O(CO)PhNH OC(CH3)2 O] — higher, 56%
- COc1ccc2nc3c(c(C)nn3[C@@H]3O[C@H](CNC(=O)c4ccccc4)[C@@H](O)[C@H]3O)c(Cl)c2c1 [O(CO)PhNH OH OH] — lower, 24%
- COc1ccc2nc3c(c(C)nn3[C@@H]3O[C@H](COC(=O)c4cccnc4)[C@@H](OC(=O)c4cccnc4)[C@H]3OC(=O)c3cccnc3)c(Cl)c2c1 [O(CO)Py O(CO)Py O(CO)Py] — lower, 33%

Same assay, conditions: table 2; 100 μM

Point of comparison: COc1ccc2nc3c(c(C)nn3[C@@H]3O[C@H](COC(=O)c4ccccc4)[C@H]4OC(c5ccccc5)O[C@H]43)c(Cl)c2c1 (stereo partly shown) [O(CO)Ph OC(Ph)O], “ras p21 Assay (per cent inhibition)” value 41%. Against it:
- COc1ccc2nc3c(c(C)nn3[C@@H]3O[C@H](COC(=O)c4cc(C)ccc4C)[C@@H](OC(=O)c4cc(C)ccc4C)[C@H]3OC(=O)c3cc(C)ccc3C)c(Cl)c2c1 — lower, 37%
- COc1ccc(C(=O)OC[C@H]2O[C@@H](n3nc(C)c4c(Cl)c5cc(OC)ccc5nc43)[C@H](OC(=O)c3ccc(OC)cc3)[C@@H]2OC(=O)c2ccc(OC)cc2)cc1 — higher, 44%
- COc1ccc2nc3c(c(C)nn3[C@@H]3O[C@H](COCc4ccccc4)[C@@H](OCc4ccccc4)[C@H]3OCc3ccccc3)c(Cl)c2c1 [CH2 Ph CH2 Ph CH2 Ph] — lower, 35%
- COc1ccc2nc3c(c(C)nn3[C@@H]3O[C@H](COC(=O)Cc4ccccc4)[C@@H](OC(=O)Cc4ccccc4)[C@H]3OC(=O)Cc3ccccc3)c(Cl)c2c1 [O(CO)CH2 Ph (CO)CH2 Ph O(CO)CH2 Ph] — higher, 62%
- COc1ccc2nc3c(c(C)nn3[C@@H]3O[C@H](COC(=O)c4ccccc4)[C@@H](OCc4ccccc4)[C@H]3OCc3ccccc3)c(Cl)c2c1 [O(CO)Ph CH2 Ph CH2 Ph] — higher, 53%
- COc1ccc2nc3c(c(C)nn3[C@@H]3O[C@H](COC(=O)c4ccccc4)[C@@H](OC(C)=O)[C@H]3OC(C)=O)c(Cl)c2c1 [O(CO)Ph O(CO)CH3 O(CO)CH3] — higher, 44%
- COc1ccc2nc3c(c(C)nn3[C@@H]3O[C@H](COC(=O)c4ccccc4)[C@@H](O)[C@H]3O)c(Cl)c2c1 [O(CO)Ph OH OH] — lower, 16%
- COc1ccc2nc3c(c(C)nn3[C@@H]3O[C@H](COC(=O)c4ccc([N+](=O)[O-])cc4)[C@@H](OC(=O)c4ccc([N+](=O)[O-])cc4)[C@H]3OC(=O)c3ccc([N+](=O)[O-])cc3)c(Cl)c2c1 [O(CO)Ph-4-NO2 (CO)Ph-4-NO2 O(CO)Ph-4-NO2] — higher, 59%
- COc1ccc2nc3c(c(C)nn3[C@@H]3O[C@H](COC(C)=O)[C@@H](OC(C)=O)[C@H]3OC(C)=O)c(Cl)c2c1 [OCOCH3 O(CO)CH3 O(CO)CH3] — lower, 3%
- COc1ccc2nc3c(c(C)nn3[C@@H]3O[C@H](CO)[C@H]4OC(C)(C)O[C@H]43)c(Cl)c2c1 [OH OC(CH3)2 O] — lower, 11%

Same assay, conditions: table 2; concentration causing 50% inhibition of ^3H-GDP binding; read-out: ras p21 Assay (IC50)

Point of comparison: COc1ccc2nc3c(c(C)nn3[C@@H]3O[C@H](COC(=O)c4ccccc4)[C@@H](OC(=O)c4ccccc4)[C@H]3OC(=O)c3ccccc3)c(Cl)c2c1 [O(CO)Ph O(CO)Ph O(CO)Ph], IC50 10 µM. Against it:
- COc1ccc2nc3c(c(C)nn3[C@@H]3O[C@H](COC(=O)c4ccccc4)[C@H]4OC(=S)O[C@H]43)c(Cl)c2c1 [(CO)Ph OC(S)O] — 1.5-fold higher, 15 µM
- COc1ccc2nc3c(c(C)nn3[C@@H]3O[C@H](C(O)CC(=O)c4ccccc4)[C@H]4OC(=S)O[C@H]43)c(Cl)c2c1 (stereo partly shown) [Compound U] — 6.7-fold lower, 1.5 µM
- COc1ccc2nc3c(c(C)nn3[C@@H]3O[C@H](COC(=O)c4ccco4)[C@@H](OC(=O)c4ccco4)[C@H]3OC(=O)c3ccco3)c(Cl)c2c1 [O(CO)-2-Fu O(CO)-2-Fu O(CO)-2-Fu] — the same, 10 µM
- COc1ccc2nc3c(c(C)nn3[C@H]3C=C[C@@H](COC(=O)c4ccccc4)O3)c(Cl)c2c1 [O(CO)Ph --] — 9-fold higher, 90 µM

Same assay, conditions: table 3; 50 μM

Point of comparison: COc1ccc2nc3c(c(C)nn3-c3ccc(/C=C/C(=O)c4ccccc4)o3)c(Cl)c2c1, “ras 21 assay (per cent inhibition)” value 61%. Against it:
- COc1ccc2nc3c(c(C)nn3[C@@H]3O[C@H](C(O)CC(=O)c4ccccc4)[C@@H](O)[C@H]3O)c(Cl)c2c1 (stereo partly shown) — lower, 34%
- COc1ccc2nc3c(c(C)nn3[C@H]3C=C[C@@H](C(O)CC(=O)c4ccccc4)O3)c(Cl)c2c1 (stereo partly shown) — lower, 48%

Same assay, conditions: table 3; 100 μM

Point of comparison: COc1ccc2nc3c(c(C)nn3[C@@H]3O[C@H](/C=C/C(=O)c4ccccc4)[C@H]4OC(C)(C)O[C@H]43)c(Cl)c2c1, “ras 21 assay (per cent inhibition)” value 53%. Against it:
- COc1ccc2nc3c(c(C)nn3[C@H]3C=C[C@@H](CCC(=O)c4ccccc4)O3)c(Cl)c2c1 — the same, 53%
- COc1ccc2nc3c(c(C)nn3[C@H]3CC[C@@H](COC(=O)c4ccccc4)O3)c(Cl)c2c1 — lower, 38%

Same assay, conditions: table 3; concentration causing 50% inhibition of ^3H-GDP binding; read-out: ras 21 assay (IC50)

Point of comparison: COc1ccc2nc3c(c(C)nn3[C@H]3C=C[C@@H](/C=C/C(=O)c4ccccc4)O3)c(Cl)c2c1, IC50 35 µM. Against it:
- COc1ccc2nc3c(c(C)nn3[C@@H]3O[C@H](/C=C/C(=O)c4ccccc4)[C@@H](O)[C@H]3O)c(Cl)c2c1 — 3.5-fold lower, 10 µM

Same assay, conditions: table 4 (arabinose derivatives); 50 μM

Point of comparison: COc1ccc2nc3c(c(C)nn3[C@@H]3O[C@H](COCc4ccccc4)[C@@H](OCc4ccccc4)[C@@H]3OCc3ccccc3)c(Cl)c2c1 [CH2 OBn OBn OBn Cl], “p21 ras assay (per cent inhibition)” value 31%. Against it:
- COc1ccc2nc3c(c(C)nn3[C@@H]3O[C@H](COC(=O)c4ccccc4)[C@@H](OC(=O)c4ccccc4)[C@@H]3OC(=O)c3ccccc3)c(Cl)c2c1 [CH2 OBz OBz OBz Cl] — lower, 17%
- COc1ccc2nc3c(c(C)nn3[C@@H]3O[C@H](CO)[C@@H](O)[C@@H]3O)c(Cl)c2c1 [CH2 OH OH OH Cl] — lower, 18%

Same assay, conditions: table 4 (arabinose derivatives); concentration causing 50% inhibition of ^3H-GDP binding; read-out: p21 ras assay (IC50)

COc1ccc2nc3c(cc2c1)c(C)nn3[C@@H]1O[C@H](COC(=O)c2ccccc2)[C@@H](OC(=O)c2ccccc2)[C@@H]1OC(=O)c1ccccc1 [CH2 OBz OBz OBz H] gave an IC50 of 10 µM.
